Here are results for 14 compounds from ChEMBL document CHEMBL5247609, “Novel nitric oxide-releasing derivatives of pyranocarbazole as antitumor agents: Design, synthesis, biological evaluation, and nitric oxide release studies” (Eur J Med Chem, 2022).

The source made the active and inactive calls. No cut-off for these calls is given here.

The subject of one test is HeLa. Description: Antiproliferative activity against human HeLa cells assessed as reduction in cell viability after 96 hrs by MTT assay. It counts as functional, cell-based. Background: Formazan colour is commonly taken as a measure of viable cells.
The subject of test [1] is MDA-MB-231. The test is described as follows: Antiproliferative activity against human MDA-MB-231 cells assessed as reduction in cell viability after 96 hrs by MTT assay. To be noted: MDA-MB-231, 96 h. It counts as functional, cell-based.
The next test concerns NCI-H460. The test is described as follows: Antiproliferative activity against human H460 cells assessed as reduction in cell viability after 96 hrs by MTT assay. Conditions: NCI-H460, 96 h. The format is functional, cell-based.
The subject of test [2] is MDA-MB-231. The test is described as follows: Antiproliferative activity against human MDA-MB-231 cells assessed as reduction in cell viability by measuring release of nitrite at 100 uM after 180 mins by Griess reagent analysis. The format is functional. To be noted: 3 h.
Test [3] concerns MDA-MB-231. The test is described as follows: Induction of apoptosis in human MDA-MB-231 cells assessed as late apoptotic cells measured at 5 uM after 48 hrs by FITC-Annexin-V and propidium iodide based flow cytometric analysis (reference value: 2.68%). The format is functional.
Test [4] concerns MDA-MB-231. The test is described as follows: Induction of morphological changes in human MDA-MB-231 cells assessed as decrease in cell size at 5 uM measured after 24 hrs by bright field inverted microscopic analysis. The format is functional, cell-based.
Test [5] has as its system MX1. The test is described as follows: Induction of morphological changes in human MX1 cells at 5 uM measured after 24 hrs by bright field inverted microscopic analysis. The format is functional, cell-based.
For test [6], the system named is MDA-MB-231. Description: Induction of apoptosis in human MDA-MB-231 cells assessed as early apoptotic cells measured at 5 uM after 48 hrs by FITC-Annexin-V and propidium iodide based flow cytometric analysis (reference value: 2.71%). The format is functional. In general terms: Flow cytometry measures light scatter and fluorescence of single cells or particles in a stream.

The test system of test [7] is MDA-MB-231. The test is described as follows: Induction of apoptosis in human MDA-MB-231 cells assessed as viable cells measured at 5 uM after 48 hrs by FITC-Annexin-V and propidium iodide based flow cytometric analysis (reference value: 94.4% ). The format is functional. Conditions: read-out: Activity.
In test [8] the test system is MX1. The test is described as follows: Induction of morphological changes in human MX1 cells assessed as decrease in cell number at 5 uM measured after 24 hrs by bright field inverted microscopic analysis. It counts as functional, cell-based.
Test [9] has as its system MDA-MB-231. Description: Induction of morphological changes in human MDA-MB-231 cells at 5 uM measured after 24 hrs by bright field inverted microscopic analysis. It counts as functional, cell-based.
In test [10] the test system is MDA-MB-231. The test is described as follows: Induction of morphological changes in human MDA-MB-231 cells assessed as decrease in cell number at 5 uM measured after 24 hrs by bright field inverted microscopic analysis. It counts as functional, cell-based.
Test [11] deals with MX1. Description: Induction of apoptosis in human MX1 cells assessed as viable cells measured at 5 uM after 48 hrs by FITC-Annexin-V and propidium iodide based flow cytometric analysis (reference value: 88.4%). To be noted: read-out: Activity. It counts as functional.
In test [12] the test system is MDA-MB-231. The test is described as follows: Induction of apoptosis in human MDA-MB-231 cells assessed as necrotic cells measured at 5 uM after 48 hrs by FITC-Annexin-V and propidium iodide based flow cytometric analysis (reference value: 0.253 %). It counts as functional.
For test [13], the system named is MDA-MB-231. The test is described as follows: Antiproliferative activity against human MDA-MB-231 cells assessed as decrease in number of colony formation at 5 uM measured after 14 days by crystal violet staining based analysis. To be noted: time 14.0 day. It counts as functional, cell-based.
Test [14] deals with MX1. The test is described as follows: Induction of apoptosis in human MX1 cells assessed as necrotic cells measured at 5 uM after 48 hrs by FITC-Annexin-V and propidium iodide based flow cytometric analysis (reference value: 0.055 %). The format is functional.
Test [15] has as its system MX1. Description: Induction of apoptosis in human MX1 cells assessed as early apoptotic cells measured at 5 uM after 48 hrs by FITC-Annexin-V and propidium iodide based flow cytometric analysis (reference value: 6.30%). The format is functional.
Test [16] concerns MX1. The test is described as follows: Induction of morphological changes in human MX1 cells assessed as decrease in cell size at 5 uM measured after 24 hrs by bright field inverted microscopic analysis. The format is functional, cell-based.
Test [17] relates to MX1. Description: Induction of apoptosis in human MX1 cells assessed as late apoptotic cells measured at 5 uM after 48 hrs by FITC-Annexin-V and propidium iodide based flow cytometric analysis (reference value: 5.24%). It counts as functional.

In general, IC50 refers to the point on the concentration scale where inhibition reaches its midpoint. With `NCCOc1no[n+]([O-])c1S(=O)(=O)c1ccccc1`, the results for the IC50 in the test on HeLa, in the test with MDA-MB-231 [1] and in the test with NCI-H460 were 10500 nM, 12700 nM and 16300 nM, respectively.
For the compound `CC1(C)C=Cc2c(c(CNCCCOc3no[n+]([O-])c3S(=O)(=O)c3ccccc3)cc3c2[nH]c2ccc(C(C)(C)C)cc23)O1`, in the test with MDA-MB-231 [2], the Nitrite release was found to be 19.7 µM. For the same compound, the IC50 is 7550 nM in the test with HeLa, 5850 nM in the test with MDA-MB-231 [1] and 7490 nM in the test with NCI-H460.
As to `CC1(C)C=Cc2c(c(CN3CCC(COc4no[n+]([O-])c4S(=O)(=O)c4ccccc4)CC3)cc3c2[nH]c2ccc(C(C)(C)C)cc23)O1`, the IC50 in the test on HeLa was found to be 3860 nM; in the test on MDA-MB-231 [1] it was 3750 nM; in the test on NCI-H460, 4490 nM.
`CC1(C)C=Cc2c(c(/C=C/C(=O)NCCCOc3no[n+]([O-])c3S(=O)(=O)c3ccccc3)cc3c2[nH]c2ccc(C(C)(C)C)cc23)O1`: the Nitrite release in the test with MDA-MB-231 [2] was 19.7 µM. For the same compound, the IC50 worked out at 230 nM in the test on HeLa, 180 nM in the test with MDA-MB-231 [1] and 1280 nM in the test with NCI-H460.
On to `CC1(C)C=Cc2c(c(/C=C/C(=O)N3CCC(Oc4no[n+]([O-])c4S(=O)(=O)c4ccccc4)CC3)cc3c2[nH]c2ccc(C(C)(C)C)cc23)O1`, for which the results for the IC50 in the test on HeLa, in the test on MDA-MB-231 [1] and in the test on NCI-H460 were 1350 nM, 3520 nM and 2680 nM, respectively.
As for `CC1(C)C=Cc2c(c(CN3CCC(Oc4no[n+]([O-])c4S(=O)(=O)c4ccccc4)CC3)cc3c2[nH]c2ccc(C(C)(C)C)cc23)O1`, the Nitrite release in the test on MDA-MB-231 [2] worked out at 19.7 µM. Further, the results for the IC50 in the test with HeLa, in the test on MDA-MB-231 [1] and in the test with NCI-H460 were 1620 nM, 3510 nM and 1390 nM, respectively.
The like results for `CC1(C)C=Cc2c(c(/C=C/C(=O)N3CCCC3COc3no[n+]([O-])c3S(=O)(=O)c3ccccc3)cc3c2[nH]c2ccc(C(C)(C)C)cc23)O1` (stereo not given) were, in that order, 19.7 µM, 240 nM, 380 nM and 6040 nM.
In the same order, the values of `CC1(C)C=Cc2c(c(/C=C/C(=O)N3CCC(COc4no[n+]([O-])c4S(=O)(=O)c4ccccc4)CC3)cc3c2[nH]c2ccc(C(C)(C)C)cc23)O1` are 19.7 µM, 430 nM, 290 nM and 1360 nM.
`CC(=O)O[C@H]1C(=O)[C@@]2(C)[C@H]([C@H](OC(=O)c3ccccc3)[C@]3(O)C[C@H](OC(=O)[C@H](O)[C@@H](NC(=O)c4ccccc4)c4ccccc4)C(C)=C1C3(C)C)[C@]1(OC(C)=O)CO[C@@H]1C[C@@H]2O` [PACLITAXEL]: the Nitrite release with MDA-MB-231 [2] amounted to 19.7 µM. The IC50 worked out at 6 nM in the test with HeLa and 50 nM in the test with MDA-MB-231 [1].
`CC(CNC(=O)/C=C/c1cc2c([nH]c3ccc(C(C)(C)C)cc32)c2c1OC(C)(C)C=C2)Oc1no[n+]([O-])c1S(=O)(=O)c1ccccc1` (stereo not given): the IC50 in the test on HeLa was found to be 210 nM; with MDA-MB-231 [1], 200 nM; with NCI-H460, 990 nM.
With `CC1(C)C=Cc2c(c(CN3CCC(CCOc4no[n+]([O-])c4S(=O)(=O)c4ccccc4)CC3)cc3c2[nH]c2ccc(C(C)(C)C)cc23)O1`, in the test with MDA-MB-231 [2], the Nitrite release amounted to 19.7 µM. The IC50 turned out to be 1830 nM with HeLa, 3500 nM in the test on MDA-MB-231 [1] and 1960 nM in the test with NCI-H460.
Take `CN1CCN(Cc2cc3c([nH]c4ccc(C(C)(C)C)cc43)c3c2OC(C)(C)C=C3)CC1`: the Activity with MDA-MB-231 [3] amounted to 7.79%; in the test with MDA-MB-231 [6], 10.2%; with MDA-MB-231 [12], 0.745%; in the test with MX1 [14] it was 0.175%; in the test with MX1 [15], 53.8%; with MX1 [17], 9.97%. Besides, the result in the test on MDA-MB-231 [4], in the test with MX1 [5], in the test on MX1 [8], in the test on MDA-MB-231 [9], with MDA-MB-231 [10] and in the test on MDA-MB-231 [13] was Active. The result in the test on MX1 [16] was Active. For the same compound, the viability at 5 µM stood at 81.3% with MDA-MB-231 [7] and 36% with MX1 [11]. Moreover, the IC50 with HeLa amounted to 1290 nM; with MDA-MB-231 [1], 3430 nM; with NCI-H460 it was 3590 nM.
Consider `CC1(C)C=Cc2c(c(CNCCOc3no[n+]([O-])c3S(=O)(=O)c3ccccc3)cc3c2[nH]c2ccc(C(C)(C)C)cc23)O1`, for which the Nitrite release in the test with MDA-MB-231 [2] was 19.7 µM. The IC50 in the test with HeLa came out at 5340 nM; in the test with MDA-MB-231 [1] it was 4260 nM; with NCI-H460, 5980 nM.
Regarding `CC1(C)C=Cc2c(c(/C=C/C(=O)N3CCC(CCOc4no[n+]([O-])c4S(=O)(=O)c4ccccc4)CC3)cc3c2[nH]c2ccc(C(C)(C)C)cc23)O1`, the Nitrite release in the test on MDA-MB-231 [2] was found to be 19.7 µM. Also, the IC50 was 240 nM in the test on HeLa, 210 nM in the test with MDA-MB-231 [1] and 3180 nM with NCI-H460.
